Target: T1, Androgen Receptor (AR) (Homo sapiens, UniProt P10275, T878A)
T1 construct: endogenous in cells; host or cells: LNCaP
T1 sequence (P10275 1-920 T878A): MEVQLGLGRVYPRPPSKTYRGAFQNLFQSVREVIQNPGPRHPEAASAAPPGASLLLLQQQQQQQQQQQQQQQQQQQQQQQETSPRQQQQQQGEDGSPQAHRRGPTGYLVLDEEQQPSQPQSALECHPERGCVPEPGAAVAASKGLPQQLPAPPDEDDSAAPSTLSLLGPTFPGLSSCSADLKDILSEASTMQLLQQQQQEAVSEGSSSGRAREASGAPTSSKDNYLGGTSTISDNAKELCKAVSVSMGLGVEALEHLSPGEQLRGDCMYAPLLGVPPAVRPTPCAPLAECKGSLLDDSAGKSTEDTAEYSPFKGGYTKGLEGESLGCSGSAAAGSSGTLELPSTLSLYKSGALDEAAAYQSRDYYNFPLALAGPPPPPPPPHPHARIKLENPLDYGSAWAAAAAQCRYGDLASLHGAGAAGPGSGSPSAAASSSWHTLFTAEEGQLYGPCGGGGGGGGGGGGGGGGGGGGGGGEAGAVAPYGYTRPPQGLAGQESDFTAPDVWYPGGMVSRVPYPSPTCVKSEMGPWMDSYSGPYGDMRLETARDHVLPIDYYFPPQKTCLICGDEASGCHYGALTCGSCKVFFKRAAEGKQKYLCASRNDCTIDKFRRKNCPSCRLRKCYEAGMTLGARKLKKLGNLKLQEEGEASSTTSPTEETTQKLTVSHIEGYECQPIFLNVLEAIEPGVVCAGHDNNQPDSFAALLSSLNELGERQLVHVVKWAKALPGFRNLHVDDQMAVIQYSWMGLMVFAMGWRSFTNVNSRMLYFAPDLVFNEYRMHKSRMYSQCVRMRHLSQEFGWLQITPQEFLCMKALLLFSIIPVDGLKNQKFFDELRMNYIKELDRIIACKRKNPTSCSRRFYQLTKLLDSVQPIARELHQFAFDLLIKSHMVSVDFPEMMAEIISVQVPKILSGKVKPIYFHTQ
Assay: Measurement of AR protein degradation in LNCaP cells by Western blotting
Type: cell-based
Conditions: LNCaP, 20 h, read-out: AR degradation in LNCaP cells (%)
Method: The amount of AR protein present in LNCaP or VCaP cells was measured after treating them with the synthesized compound. The amount of AR protein was measured using Western blotting. The protocol for the experiments using LNCaP or VCaP cells was as follows.
[Culture] LNCaP cells were resuspended in RPMI1640 medium + HEPES (Hyclone, SH30255.01), 10% FBS (Hyclone, SV30207.02), and 1% Penicillin-streptomycin (Welgene, LS 202-02). 3 x 10^5 cells/mL were seeded in 12-well plates (1 mL per well) and cultured for 3 days. VCaP cells were resuspended in IMDM MEDIUM (Hyclone, SH30228.01), 20% FBS (Hyclone, SV30207.02), and 1% Penicillin-streptomycin (Welgene, LS 202-02), seeded at 9 x 10^5/mL in 1 mL per 12-well plate, and cultured for 3 days.
[Compound Treatment] 10 µL of 100x stock (e.g., 0.1, 1, 10 µM) compound solution at the final compound treatment concentration (e.g., 0.001, 0.01, 0.1 µM) was added to each well in 1 mL media, and cells were harvested after 20 hours. For DC50 measurement, 100x stock (0.01, 0.1, 1, 10, 100, 1000 µM) compound solutions at the final compound treatment concentration (0.0001, 0.001, 0.01, 0.1, 1, 10 µM) were used.
[Cell lysis] The cell pellet was suspended using 1% SDS lysis buffer (50 mM Tris, 1 mM EDTA, 1% SDS, pH 8.0, 0.5 mM PMSF, 1x Protease/Phosphatase inhibitor Cocktail (Cell Signaling Technology, 5872S)), and sonication (70% AMP, 10 cycles (30 sec ON/59 sec OFF)) was performed. After centrifugation at 4°C and 20,000 g for 20 minutes, the cell lysate was obtained and transferred to a new tube.
[Protein Quantification] A BCA protein assay (SMART™ BCA Protein Assay Kit, iNtRON Biotechnology, 21071) was performed using a 96-well microplate. 5 µL of cell lysate and 5 µL of 1% SDS lysis buffer were added to each well of the 96-well plate, followed by an additional 200 µL of BCA reagent (Reagent A: Reagent B = 50:1). The wells were incubated at 37°C for 30 minutes and cooled to room temperature for 10 minutes. After shaking for 10 seconds, the absorbance was measured at a wavelength of 562 nm. The unknown protein concentration was determined using a BSA standard curve (0, 0.125, 0.25, 0.5, 1, 2 mg/mL). Western blotting samples were prepared by mixing cell lysate, 1% SDS lysis buffer, 4x NuPAGE™ LDS Sample buffer (Invitrogen, NP0008), and 10X NuPAGE™ Sample Reducing Agent (Invitrogen, NP0009) and boiling at 70°C for 10 minutes.
[Electrophoresis] 10 µg of protein sample was loaded into each well of a NuPAGE™ 4 to 12%, Bis-Tris, 1.0 mm Mini Protein Gel, 15-well, 17-well, or 26-well (Invitrogen, NP0323BOX, NP0329BOX, or WG1403BOX) and electrophoresed for 40 minutes using NuPAGE™MES SDS Running Buffer (Invitrogen, NP0002) at 200 V (constant V).
[Transfer] Transfer was performed for 15 or 18 minutes using the electrophoresed gel and the Trans-Blot® Turbo™ Transfer Starter System (Bio-RAD, #17001918, Mini Nitrocellulose) at 1.3 A (constant A) and 25 V (limit V). To confirm protein transfer, 15 mL of Ponceau S solution (Sigma, P7170-1L) was used to stain for 1 minute, and then washed to check the degree of transfer.
[Blocking] The membrane for AR and GAPDH detection was blocked with 5% skim milk/0.2% TBST (Skim milk: BD, 232100/ 20X TBS: Biosesang, TR2008-100-00/ 10% Tween 20 Solution: Bio-RAD, #161-0781) for 45 minutes.
[Antibodies and Detection] Primary AR antibody (Androgen Receptor: CST, 5153S) was mixed with 5% skim milk/0.2% TBST at a ratio of 1:1,000 and reacted at room temperature for 3 hours or at 4°C overnight. Primary GAPDH antibody (CST, 2118S) was mixed with 5% skim milk/0.2% TBST at a ratio of 1:2,000 and reacted at room temperature for 3 hours or at 4°C overnight. Afterwards, TBST (0.2% Tween 20) was used for washing three times every 5 minutes. Secondary antibody to AR antibody, Anti-rabbit IgG, HRP-linked Antibody (CST, 7074S), was mixed with 5% skim milk/0.2% TBST at a ratio of 1:5,000 and reacted at room temperature for 45 minutes. […]

Compound: N#Cc1ccc(N2CCC(C(=O)Nc3ccc(OC4CCN(CC5CCN(c6ccc(N[C@@H]7CCC(=O)NC7=O)cc6F)CC5)CC4)cn3)CC2)cc1C(F)(F)F [Example 3, (R)-1-(4-cyano-3-(trifluoromethyl)phenyl)-N-(5-((1-((1-(4-((2,6-dioxopiperidin-3-yl)amino)-2-fluorophenyl)piperidin-4-yl)methyl)piperidin-4-yl)oxy)pyridin-2-yl)piperidine-4-carboxamide]
- Dmax at 0.01 µM: 93%
- Dmax at 0.1 µM: 99%

Source: patent EP4772505A1, “COMPOUND FOR DEGRADING ANDROGEN RECEPTOR AND MEDICAL USE THEREOF” (Ubix Therapeutics, Inc., priority 2023, dated 2025)
